Results reported in patent publication US20190201526A1, “Methods and Compositions for Treating Cancers by Inhibiting Estrogen Signaling in Myeloid-Derived Suppressor Cells” (The Wistar Institute of Anatomy and Biology, priority 2016, published 2019).

Legend:
[1] = system: metastatic solid tumors; details: patients with metastatic solid tumors; Soliman, et al., Oncotarget 2014; cited from earlier work
[2] = system: ID8-Defb29/Vegf-α cells; assay: Cell line proliferation by MTS assay; format: cell-based, mouse; details: ID8-Defb29/Vegf-α cells in vitro, increasing doses, steroid-free media; MCF-7 as positive control (FIG. 1D)
Description: (§1) ID8 cells were retrovirally transduced to express Defb29 and Vegf-α (Conejo-Garcia, et al. “Tumor-infiltrating dendritic cell precursors recruited by a beta-defensin contribute to vaculogenesis under the influence of Vegf-A.” Nat. Med. (2004) 10:950-8). MCF-7, MDA-MB-231, and LLC1 cells were obtained from American Type Culture Collection. Peritoneal tumors were initiated in mice by injecting 3X106 ID8-Defb29/Vegf-α cells intraperitoneal (i.p.). Intraperitoneal cells were harvested from tumorbearing mice by flushing the peritoneal cavity with PBS. Cells were maintained in vitro at 37° C., 5% CO2 by culturing in RPMI+10% FBS or steroid free media (SFR10), which was comprised of phenol red-free RPMI+10% charcoal-stripped FBS. Cells were treated in vitro with vehicle (0.1% DMSO) or varying concentrations of estradiol, fulvestrant, or Methylpiperidino pyrazole (MPP) purchased from Cayman Chemical. Cell line proliferation was determined by MTS assay (Promega), and increased/decreased proliferation relative to vehicle was calculated.

[3] = system: ID8-Defb29/Vegf-α peritoneal tumors; assay: Intraperitoneal ID8-Defb29/Vegf-α ovarian tumor model (survival, flow cytometry, ELISpot); format: in vivo, mouse
Description: (§2) Female 5-8 week old wild-type (WT) C57BL/6 and congenic Ly5.1 mice were purchased from the Charles River Frederick facility. Esr1 knockout (ERα KO) were purchased from The Jackson Laboratory. Ovariectomies were performed by Charles River staff at 5 weeks of age. Mice were treated with vehicle (0.1% ethanol) or 10 μM estradiol (USP grade, Sigma) drinking water refreshed every 3-4 days. All mice were maintained in pathogen-free barrier facilities. All experiments were conducted according to the approval of the Wistar Institute Institutional Animal Care and Use Committee.
as §1
For generating mixed BM chimeras, mononuclear BM cells were collected from adult agematched CD45.1 (congenic) WT or CD45.2 Esr1^−/− donor mice, and 1-2×10^6 cells were mixed in a 1:1 ratio and retro-orbitally injected into lethally irradiated (˜950 rad) adult recipients. Mixed chimeras were analyzed after 7-8 weeks as indicated.
(§3) Flow cytometry was performed by staining cells with Zombie Yellow viability dye, blocking with anti-CD16/32 (2.4G2), and staining for 30 min at 4° C. with the following anti-mouse antibodies: CD45 (30-F11), CD45.1 (A20), CD45.2 (104), CD11c (N418), I-A/I-E (M5/114.15.2), CD3 (145-2C11), Ly6G (1A8), Ly6C (HK1.4), gp130 (4H1B35), IL6R (D7715A7), Gr1 (RB6-4C5), CD4 (RM4-5), CD8b (YTS156.7.7), CD44 (IM7), CD69 (H1.2F3), CD11b (M1/70); or anti-human antibodies: CD45 (HI30), CD11c (Bul5), HLA-DR-APC/Cy7 (L243), CD15 (HI98), CD14 (HCD14), CD11b (ICRF44), CD33 (WM53), CD19 (HIB19). Samples were subsequently run using an LSRII and analyzed using FlowJo.
Dendritic cells (BMDCs) were differentiated by culturing WT mouse bone marrow for 7 days with 20 ng/mL GM-CSF (Peprotech 315-03), refreshed every 3 days. BMDCs were subsequently primed with tumor antigen by pulsing for 24 hours with irradiated (100 Gy+30 minutes UV) ID8-Defb29/Vegf-α cells at a ratio of 10:1. ELISPOT assay was performed by stimulating 1X105 cells obtained from peritoneal wash with 1X104 antigen-primed BMDCs in a 96-well filter plate (Millipore MSIPS4510) coated with IFNγ capture antibody according to manufacturer's guidelines (eBioscience 88-3784-88). Following incubation at 37° C., 5% CO2 or 48 hours, positive spots were developed using Avidin-AP and BCIP-NBT substrate (R&D Systems SEL002).

[4] = system: STAT3; assay: pSTAT3 and total STAT3 in in vitro BM-derived MDSC cultures (Western blot); format: cell-based, mouse; details: 100 ng/mL E2 or 2 μM MPP (FIG. 6B)
Description: (§4) Mouse MDSCs were expanded from mouse bone marrow harvested by flushing tibias and femurs with media. Following red blood cell lysis, 2.5×10^6 cells were cultured in 10 mL of RPMI+10% FBS augmented with recombinant mouse 40 ng/mL GM-CSF^+40 ng/mL IL6 (Peprotech) and incubated at 37° C., 5% CO2 3 or 6 days. Vehicle, estradiol, or MPP treatments were added as described above. For 6 day cultures, cytokines and estrogen treatments were refreshed on day 3. Following incubation, floating and adherent cells were collected, and MMDSCs and G-MDSCs were isolated via MDSC purification kit according to manufacturer's protocol for further analysis. Human MDSCs were expanded from human lung cancer patient bone marrow acquired as single cell suspensions (see above). Briefly, 2×10^6 cells were cultured in 3 mL of IMDM^+ 15% FBS supplemented with recombinant human 40 ng/mL GM-CSF^+ 40 ng/mL IL6 (Peprotech) and treated with Vehicle, 2 μM, or 10 μM MPP (see above) for 4 days. Cells were subsequently harvested and analyzed by flow cytometry.
(§5) Cells were lysed in RIPA buffer supplemented with protease inhibitors, phosphatase inhibitors, and Na3VO4 (Thermo) according to manufacturer protocol. Protein quantification was determined via BCA assay, and protein was run on TGX 4-15% gradient gels. Following transfer, PVDF membranes were blocked with 5% BSA in TBS+ 0.05% Tween-20. […]

[5] = system: G- or M-MDSCs isolated from 6-day bone marrow cultures; assay: MDSC suppression assay (Cell Trace Violet dilution of T cells); format: cell-based, mouse; details: 6-day BM cultures
Description: as §4
Naïve WT T cells were purified from spleens as described and labeled with the proliferation tracker Cell Trace Violet according to manufacturer protocol. T cell proliferation was stimulated by adding anti-CD3/CD28 mouse T-activator beads (Thermo) at a 1:1 T cell to bead ratio according to manufacturer protocol. […]

[6] = system: Jak2; assay: Jak2 RNA and protein expression in BM-derived MDSCs; format: cell-based, mouse
Description: as §4, §5

[7] = system: Lewis Lung Carcinomas (LLC); assay: Lewis Lung Carcinoma (LLC) tumor progression in mice; format: in vivo, mouse; details: estradiol supplementation, WT mice (FIG. 3A)
Description: as §2
ID8 cells were retrovirally transduced to express Defb29 and Vegf-α (Conejo-Garcia, et al. “Tumor-infiltrating dendritic cell precursors recruited by a beta-defensin contribute to vaculogenesis under the influence of Vegf-A.” Nat. Med. (2004) 10:950-8). MCF-7, MDA-MB-231, and LLC1 cells were obtained from American Type Culture Collection. Peritoneal tumors were initiated in mice by injecting 3X106 ID8-Defb29/Vegf-α cells intraperitoneal (i.p.). Intraperitoneal cells were harvested from tumorbearing mice by flushing the peritoneal cavity with PBS. […] Cell line proliferation was determined by MTS assay (Promega), and increased/decreased proliferation relative to vehicle was calculated.

[8] = system: IL6Rα chain, gp130; assay: Surface expression of IL6Rα and gp130 on BM-derived MDSCs (flow cytometry); format: cell-based, mouse
Description: as §3
as §4, with “Human MDSCs were expanded from human lung cancer patient bone marrow acquired as single cell suspensions (see above). Briefly, 2×10^6 cells were cultured in 3 mL of IMDM^+ 15% FBS supplemented with recombinant human 40 ng/mL GM-CSF^+ 40 ng/mL IL6 (Peprotech) and treated with Vehicle, 2 μM, or 10 μM MPP (see above) for 4 days.” left out

[9] = system: STAT3; assay: pSTAT3 in MDSCs from tumor-bearing mice (Western blot); format: in vivo, mouse; details: spleens of advanced ovarian cancer-bearing mice treated with E2, compared to oophorectomized mice (FIG. 6A)
Description: as §2
Cells were lysed in RIPA buffer supplemented with protease inhibitors, phosphatase inhibitors, and Na3VO4 (Thermo) according to manufacturer protocol. Protein quantification was determined via BCA assay, and protein was run on TGX 4-15% gradient gels. Following transfer, PVDF membranes were blocked with 5% BSA in TBS+ 0.05% Tween-20. The following primary antibodies were added to membranes, as indicated, and incubated overnight: Jak2 (rabbit clone#D2E12), Stat3 (clone#124H6) and pStat3 (Tyr705)(rabbit clone#D3A7), from Cell Signaling; and ERα (Thermo, clone#TE111.5D11) and beta-actin (Sigma, clone#AC-15).
Following secondary staining with HRP-conjugated anti-mouse or rabbit IgG, membranes were developed using ECL prime (GE Healthcare).

Structure (SMILES) | Activity in human clinical trials [1] | Proliferation relative to vehicle (response to treatment) [2] | Tumor progression in irradiated mice reconstituted with wild-type bone marrow ([3]; E2 treatment, compared to mice reconstituted with ERα-deficient bone marrow (FIG. 4B)) | IFN-γ ELISpot response of tumor-associated T cells to tumor antigens ([3]; T cells from E2-treated mice vs control and oophorectomized mice (FIG. 2C)) | Inflammation at tumor (peritoneal) beds ([3]; ad libitum estradiol supplementation, tumor-bearing mice (FIG. 2A)) | Tumor progression in ERα KO hosts ([3]; estradiol supplementation, ERα KO mice (FIG. 4A)) | Tumor progression in wild-type controls ([3]; estradiol supplementation, wild-type mice (FIG. 4A)) | Proportions of CD44+ CD69+ tumor-associated CD4 and CD8 T-cells ([3]; estradiol-supplemented tumor-bearing mice (FIG. 2B)) | Percentage and total numbers of M-MDSC and G-MDSC ([3]; spleen and tumor beds of tumor-bearing mice (FIGS. 3B to 3E)) | Phospho-STAT3 in M-MDSCs and G-MDSCs [4] | Inhibitory activity of M-MDSCs ([5]; 100 ng/mL E2 (FIG. 5C, bottom)) | Immunosuppressive activity of G-MDSCs ([5]; 100 ng/mL E2 or 2 μM MPP (FIG. 5C, top)) | Jak2 protein expression ([6]; BM-derived MDSCs (FIG. 6E, right)) | Jak2 RNA expression ([6]; cytokine-induced bone marrow MDSCs of both lineages (FIG. 6E, left)) | Malignant growth of LLC tumors [7] | Survival of LLC tumor-bearing mice [7] | Surface expression of the IL6Rα chain ([8]; BM-MDSCs (FIG. 6D, left)) | Surface expression of gp130 ([8]; BM-MDSCs (FIG. 6D, right)) | Levels of pSTAT3Y705 in monocytic and granulocytic MDSCs [9]
Cn1cc(C[C@@H](N)C(=O)O)c2ccccc21 [Indoximod, 1-methyl-D-tryptophan] | has shown activity | – | – | – | – | – | – | – | – | – | – | – | – | – | – | – | – | – | –
C[C@]12CC[C@@H]3c4ccc(O)cc4CC[C@H]3[C@@H]1CC[C@@H]2O [estradiol] | – | fail to respond | tumors progress significantly faster | responded significantly worse than either group | augmented inflammation | failed to accelerate tumor progression | significant effects | decreases | increased | increased phospho-STAT3 levels | did not affect | more potently immunosuppressive | reproducible Jak2 up-regulation | transcriptional up-regulation | accelerated malignant growth | decreased survival | did not elicit changes | did not elicit changes | significantly increased
